How the values were obtained:
[1] = molecular target: T1, Ephrin type-A receptor 1 (Homo sapiens) (UniProt P21709); assay: Selectivity interaction (Upstate Kinase Profiler service (Millipore)) EUB0000056c EPHA1; conditions: at 1 µM
T1 sequence (whole entry): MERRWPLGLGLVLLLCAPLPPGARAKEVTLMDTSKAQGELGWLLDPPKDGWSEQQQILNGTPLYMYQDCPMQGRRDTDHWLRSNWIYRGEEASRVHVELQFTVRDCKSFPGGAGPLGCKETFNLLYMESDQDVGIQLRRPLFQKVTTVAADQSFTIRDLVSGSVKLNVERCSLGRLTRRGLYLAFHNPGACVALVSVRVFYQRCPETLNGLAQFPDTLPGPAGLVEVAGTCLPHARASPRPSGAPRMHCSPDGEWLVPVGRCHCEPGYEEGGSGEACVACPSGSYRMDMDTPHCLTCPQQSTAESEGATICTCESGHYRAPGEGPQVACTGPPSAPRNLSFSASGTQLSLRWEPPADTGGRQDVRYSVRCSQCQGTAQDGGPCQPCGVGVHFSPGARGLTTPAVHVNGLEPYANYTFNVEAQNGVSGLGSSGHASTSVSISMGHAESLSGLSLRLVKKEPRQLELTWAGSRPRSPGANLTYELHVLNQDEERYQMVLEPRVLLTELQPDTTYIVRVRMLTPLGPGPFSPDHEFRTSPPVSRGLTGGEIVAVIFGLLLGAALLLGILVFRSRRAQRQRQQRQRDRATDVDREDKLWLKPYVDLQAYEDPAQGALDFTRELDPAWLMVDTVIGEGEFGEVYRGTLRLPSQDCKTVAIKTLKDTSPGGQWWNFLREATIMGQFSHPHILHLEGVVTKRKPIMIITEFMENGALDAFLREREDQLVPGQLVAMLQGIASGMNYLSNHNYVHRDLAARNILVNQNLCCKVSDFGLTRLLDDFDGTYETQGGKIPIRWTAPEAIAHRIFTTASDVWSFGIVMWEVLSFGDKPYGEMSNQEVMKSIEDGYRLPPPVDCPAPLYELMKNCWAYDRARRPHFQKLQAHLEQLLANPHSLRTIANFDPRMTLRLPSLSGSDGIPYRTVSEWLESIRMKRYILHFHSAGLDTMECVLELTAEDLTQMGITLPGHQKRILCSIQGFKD

[2] = molecular target: T2, Serine/threonine-protein kinase D2 (Homo sapiens) (UniProt Q9BZL6); assay: Selectivity interaction (KinomeScan (DiscoverX)) EUB0000655a PRKD2; conditions: at 10 µM
T2 sequence (whole entry): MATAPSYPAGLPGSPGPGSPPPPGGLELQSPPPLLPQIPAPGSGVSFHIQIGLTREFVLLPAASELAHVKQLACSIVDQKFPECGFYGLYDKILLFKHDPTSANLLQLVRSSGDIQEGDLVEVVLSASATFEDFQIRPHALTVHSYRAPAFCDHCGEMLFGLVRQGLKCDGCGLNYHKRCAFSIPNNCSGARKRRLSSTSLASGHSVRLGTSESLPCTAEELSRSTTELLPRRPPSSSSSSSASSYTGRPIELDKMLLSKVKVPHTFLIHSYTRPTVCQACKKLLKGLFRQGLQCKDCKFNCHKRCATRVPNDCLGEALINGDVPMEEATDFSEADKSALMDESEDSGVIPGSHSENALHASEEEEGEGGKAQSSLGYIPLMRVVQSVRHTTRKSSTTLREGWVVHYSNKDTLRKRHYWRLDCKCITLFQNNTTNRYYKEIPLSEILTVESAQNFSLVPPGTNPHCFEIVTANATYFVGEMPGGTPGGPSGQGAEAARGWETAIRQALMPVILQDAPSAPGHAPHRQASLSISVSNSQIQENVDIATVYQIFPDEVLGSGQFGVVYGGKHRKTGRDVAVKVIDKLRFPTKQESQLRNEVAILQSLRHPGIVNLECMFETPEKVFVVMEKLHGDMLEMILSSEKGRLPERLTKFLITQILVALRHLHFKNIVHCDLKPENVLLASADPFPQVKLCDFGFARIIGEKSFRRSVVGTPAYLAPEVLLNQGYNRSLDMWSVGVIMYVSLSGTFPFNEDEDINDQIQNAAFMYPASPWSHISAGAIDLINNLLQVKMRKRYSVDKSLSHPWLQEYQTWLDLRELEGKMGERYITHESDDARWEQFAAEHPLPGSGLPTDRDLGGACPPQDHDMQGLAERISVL

Row | % of inhibition [1] [%] | SMILES | % of control [2] [%]
1 | -6 | Cc1ccc(-c2ccc3c(ccc4sc5c(c43)NC[C@@H](C)NC5=O)n2)cn1 | –
2 | – | CN(C)CCOc1ccc(-c2nc(-c3ccncc3)c(-c3ccc4c(c3)CC/C4=N\O)[nH]2)cc1 | 80

— ChEMBL document CHEMBL5465560, “Selectivity Literature for EUbOPEN Chemogenomic Library” (2024)
